Laboratory results from patent US20070254303A1, “Methods for assessing the efficacy of treatment with a glucocorticoid” (Praecis Pharmaceuticals Incorporated, priority 2006, published 2007).

What was measured:
[1] = target: T1, MetAP-2 in white blood cells (Rattus norvegicus, UniProt P38062); experiment: MetAP-2 pharmacodynamic assay (ELISA of uninhibited MetAP-2 in white blood cell lysates of treated rats); type: in vivo; settings: po, PG-PS arthritic rats, every other day, relative to the vehicle-treated group, read-out: MetAP-2 in white blood cells inhibited; for inhibition at 1 mg/kg: 1 mg/kg orally, pooled wbc after conclusion of study
T1 construct: white blood cells from animals of each study group were pooled and cell lysates were prepared; from tissue; host or cells: white blood cells of female Lewis rats (PG-PS arthritis model)
Method: After completion of the study, wbc from rats of different groups that had been treated with vehicle (p.o., qod), dex (1 mg/kg, p.o., qod) or MetAP-2 inhibitor (1, 5, or 10 mg/kg, p.o., qod) were pooled, lysed, and the amount of MetAP-2 inhibited in wbc lysates was determined by the MetAP-2 pharmacodynamic assay. All values are expressed as percentage of the amount of MetAP-2 inhibited compared with vehicle-treated rats. The amount of uninhibited MetAP-2 (=100%) in vehicle-treated rats in this assay corresponded to 41 ng MetAP-2 per mg wbc protein. The detection limit was 0.47 ng MetAP-2 per mg wbc protein. Columns: 10 rats per group, except for naive rats treated with vehicle (n=4).
(§1) Rat model of Peptidoglycan-Polysaccharide (PG-PS) induced arthritis. Female Lewis rats (109-130 g) were received from Charles River Laboratories. Food and water were available ad libitum. PG-PS (25 mg/kg) was injected intraperitoneally on day 1 and responding animals were randomized into treatment groups on day 14. Vehicle (11% HPCD in PBS), dexamethasone and a methionine aminopeptidase 2 inhibitor (1, 5, and 10 mg/kg) were administered orally, every other day. Paw swelling was monitored using a plethysmometer (Stoelting Co., Woodale, Ill.) according to instrument specifications. The volumes of the two hind paws were measured and averaged on day 1, 4, 6, 8, 10, 13, 15, 17, 20, 22, 23, 27, 29 and 31. Ten animals were assigned to each group except the vehicle group and animals which received no PG-PS, but 10 mg/kg of the methionine aminopeptidase 2 inhibitor (n=4). The methionine aminopeptidase 2 inhibitor comprising the structure structure (1-Carbamoyl-2-methyl-propyl)-carbamic acid-(3R, 4S, 5S, 6R )-5-methoxy-4-[(2R, 3R)-2-methyl-3-(3-methyl-but-2-enyl)-oxiranyl]-1-oxa-spiro[2.5]oct-6-yl ester was used in the present studies.
MetAP-2 pharmacodynamic assay. The MetAP-2 assay is an ELISA assay that measures the amount of uninhibited MetAP-2 in cells or tissues which has not been derivitized by prior treatment with a methionine aminopeptidase 2 inhibitor and/or a glucocorticoid. The assay was performed as described in, for example, Bernier, S. G., et al. (2004) Proc. Natl. Acad. Sci. USA 101: 10768-10773 and Bernier, S. G., et al. (2005) J. Cell. Biochem. 95:1191-1203, the entire contents of each of which are incorporated herein by reference. Briefly, white blood cells from animals of each study group were pooled and cell lysates were prepared as described in, for example, Bernier, S. G., et al. (2004) Proc. Natl. Acad. Sci. USA 101: 10768-10773 and Bernier, S. G., et al. (2005) J. Cell. Biochem. 95:1191-1203. […] After 1 hour, the plates were washed, and the immobilized biotinylated MetAP-2-inhibitor complex was then detected with an anti-MetAP-2 antibody, CM33 (0.5 μg/ml). […]

[2] = system: Peptidoglycan-Polysaccharide (PG-PS) induced arthritis; experiment: Rat model of PG-PS induced arthritis, paw swelling of the hind limbs; type: in vivo; settings: 1, 5 and 10 mg/kg orally, every other day, day 15 to day 31; compared to vehicle-treated animals
Method: as §1

T1 sequence (P38062 whole entry): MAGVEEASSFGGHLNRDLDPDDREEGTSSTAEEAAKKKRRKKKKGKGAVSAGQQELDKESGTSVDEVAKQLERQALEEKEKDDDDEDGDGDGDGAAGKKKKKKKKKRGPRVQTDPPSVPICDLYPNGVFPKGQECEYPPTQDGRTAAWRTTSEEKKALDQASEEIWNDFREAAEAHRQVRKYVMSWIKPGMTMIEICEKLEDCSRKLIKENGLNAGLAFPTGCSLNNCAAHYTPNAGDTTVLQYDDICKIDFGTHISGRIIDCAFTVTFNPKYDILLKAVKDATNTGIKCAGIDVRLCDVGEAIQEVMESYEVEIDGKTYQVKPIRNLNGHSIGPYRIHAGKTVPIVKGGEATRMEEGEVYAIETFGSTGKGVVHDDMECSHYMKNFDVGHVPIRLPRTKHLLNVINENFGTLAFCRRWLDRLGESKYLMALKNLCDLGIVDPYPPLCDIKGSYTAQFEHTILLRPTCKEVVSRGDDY

| SMILES | inhibition at 1 mg/kg [1] | joint swelling and inflammation, measured by paw swelling of the hind limbs [2] | inhibition at 5 mg/kg ([1]; 5 mg/kg orally) | inhibition at 10 mg/kg ([1]; 10 mg/kg orally) |
| --- | --- | --- | --- | --- |
| C[C@@H]1C[C@H]2[C@@H]3CCC4=CC(=O)C=C[C@]4(C)[C@@]3(F)[C@@H](O)C[C@]2(C)[C@@]1(O)C(=O)CO [dexamethasone, reference compound] | ≥ 90% | – | – | – |
| CO[C@@H]1[C@H](OC(=O)N[C@@H](C(N)=O)C(C)C)CC[C@]2(CO2)[C@H]1[C@@]1(C)O[C@@H]1CC=C(C)C [methionine aminopeptidase 2 inhibitor, (1-Carbamoyl-2-methyl-propyl)-carbamic acid-(3R, 4S, 5S, 6R )-5-methoxy-4-[(2R, 3R)-2-methyl-3-(3-methyl-but-2-enyl)-oxiranyl]-1-oxa-spiro[2.5]oct-6-yl ester] | ≥ 60% | significant amelioration of joint swelling and inflammation | ≥ 95% | ≥ 95% |
